Drawing on patent US20250388543A1, “HETEROARYL COMPOUNDS FOR THE TREATMENT OF PAIN” (VERTEX PHARMACEUTICALS INCORPORATED, priority 2022, published 2025), this text covers IC50 for 25 molecules.

human NaV 1.8, sequence (Q9Y5Y9 126-1722 limits assumed): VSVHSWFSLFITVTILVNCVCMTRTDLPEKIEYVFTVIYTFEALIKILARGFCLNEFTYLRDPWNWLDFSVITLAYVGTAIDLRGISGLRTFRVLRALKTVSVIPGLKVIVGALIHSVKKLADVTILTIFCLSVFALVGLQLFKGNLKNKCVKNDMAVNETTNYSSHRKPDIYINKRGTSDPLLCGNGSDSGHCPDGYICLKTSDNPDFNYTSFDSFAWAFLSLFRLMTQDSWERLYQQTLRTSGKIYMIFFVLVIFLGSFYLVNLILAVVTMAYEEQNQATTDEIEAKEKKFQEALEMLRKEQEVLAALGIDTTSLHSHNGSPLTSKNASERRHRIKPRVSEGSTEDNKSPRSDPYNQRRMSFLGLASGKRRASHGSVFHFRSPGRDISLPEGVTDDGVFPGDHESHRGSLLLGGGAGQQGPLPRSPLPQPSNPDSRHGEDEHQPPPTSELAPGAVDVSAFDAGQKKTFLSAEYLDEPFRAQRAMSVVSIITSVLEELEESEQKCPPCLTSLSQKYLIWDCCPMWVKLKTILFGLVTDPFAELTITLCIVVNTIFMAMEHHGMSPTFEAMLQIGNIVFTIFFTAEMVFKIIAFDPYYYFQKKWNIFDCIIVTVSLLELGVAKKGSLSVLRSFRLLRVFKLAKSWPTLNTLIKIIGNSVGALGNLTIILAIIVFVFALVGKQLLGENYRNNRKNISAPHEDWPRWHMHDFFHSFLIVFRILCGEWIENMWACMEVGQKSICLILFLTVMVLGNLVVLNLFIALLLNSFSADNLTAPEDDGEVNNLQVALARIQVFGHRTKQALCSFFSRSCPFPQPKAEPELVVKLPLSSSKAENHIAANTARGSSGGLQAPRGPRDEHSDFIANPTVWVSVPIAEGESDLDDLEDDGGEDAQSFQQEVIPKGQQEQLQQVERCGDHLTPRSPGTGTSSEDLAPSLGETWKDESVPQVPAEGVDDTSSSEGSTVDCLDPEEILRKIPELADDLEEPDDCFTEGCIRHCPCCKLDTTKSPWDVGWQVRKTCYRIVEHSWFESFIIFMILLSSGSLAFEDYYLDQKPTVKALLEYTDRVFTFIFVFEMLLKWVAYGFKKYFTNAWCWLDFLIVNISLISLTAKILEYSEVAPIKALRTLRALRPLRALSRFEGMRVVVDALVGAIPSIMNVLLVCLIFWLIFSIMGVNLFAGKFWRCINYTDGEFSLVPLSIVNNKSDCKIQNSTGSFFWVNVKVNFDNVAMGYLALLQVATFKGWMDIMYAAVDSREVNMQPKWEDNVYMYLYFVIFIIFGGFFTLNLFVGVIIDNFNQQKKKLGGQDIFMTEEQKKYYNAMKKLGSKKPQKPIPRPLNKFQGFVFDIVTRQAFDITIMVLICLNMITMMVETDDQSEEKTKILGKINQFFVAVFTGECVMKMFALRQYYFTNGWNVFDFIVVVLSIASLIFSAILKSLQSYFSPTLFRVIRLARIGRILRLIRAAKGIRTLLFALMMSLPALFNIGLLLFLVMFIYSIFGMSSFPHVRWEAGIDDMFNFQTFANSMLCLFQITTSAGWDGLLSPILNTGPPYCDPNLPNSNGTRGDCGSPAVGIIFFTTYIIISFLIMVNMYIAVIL

This experiment has as its target human NaV 1.8 (Homo sapiens, UniProt Q9Y5Y9). The experiment in a line: E-VIPR Assay Detecting and Measuring NaV Inhibition Properties. The experiment is classed as cell-based. The note with it: HEK cells expressing a truncated form of human NaV 1.8 with full channel activity; electrical stimulation, membrane-potential FRET dyes; 30 minutes compound incubation; read-out: measured IC50 value in the E-VIPR Assay. From the text:
E-VIPR Assay Detecting and Measuring NaV Inhibition Properties
Sodium ion channels are voltage-dependent proteins that can be activated by inducing membrane voltage changes by applying electric fields. The electrical stimulation instrument and methods of use, referred to as E-VIPR, are described in International Publication No. WO 2002/008748 A3 and C.-J. Huang et al. Characterization of voltage-gated sodium channel blockers by electrical stimulation and fluorescence detection of membrane potential, 24 Nature Biotech. 439-46 (2006), both of which are incorporated by reference in their entirety. The instrument comprises a microtiter plate handler, an optical system for exciting the coumarin dye while simultaneously recording the coumarin and oxonol emissions, a waveform generator, a current- or voltage-controlled amplifier, and parallel electrode pairs that are inserted into assay plate wells. Under integrated computer control, this instrument passes user-programmed electrical stimulus protocols to cells within the wells of the microtiter plate.
16-20 hours prior to running the assay on E-VIPR, HEK cells expressing a truncated form of human NaV 1.8 with full channel activity were seeded into microtiter 384-well plates, pre-coated with matrigel, at a density of 25,000 cells per well. 2.5-5% KIR2.1 BacMam virus was added to the final cell suspension before seeding into cell plates. HEK cells were grown in Dulbecco's Modified Eagle's Medium (DMEM) supplemented with 10% FBS (Fetal Bovine Serum, qualified; Sigma #F4135), 1% NEAA (Non-Essential Amino Acids, Gibco #11140), 1% HEPES (Gibco #15630), 1% Pen-Strep (Penicillin-Streptomycin; Gibco #15140) and 5 μg/ml Blasticidin (Gibco #R210-01). Cells were expanded in 5-layer CellSTACK culture chambers or cell culture flasks with vented caps, with 90-95% humidity and 5% CO2.
Reagents and Stock Solutions:
100 mg/mL Pluronic F-127 (Sigma #P2443), in dry DMSO
Compound Plates: Corning 384-well Polypropylene Round Bottom #3656
Cell Plates: 384-well tissue culture treated plates (Greiner #781091-2B)
2.5-5% KIR 2.1 Bacmam virus (produced in-house), prepared as described in Section 3.3 of J. A. Fornwald et al., Gene Expression in Mammalian Cells Using BacMam, a Modified Baculovirus System, 1350 Methods in Molecular Biology 95-116 (2016), the entire contents of which are incorporated by reference. The concentration used can be dependent on viral titer of each batch.
5 mM DiSBAC6(3), a voltage sensitive oxonol acceptor (CAS number 169211-44-3; 5-[3-(1,3-dihexylhexahydro-4,6-dioxo-2-thioxo-5-pyrimidinyl)-2-propen-1-ylidene]-1,3-dihexyldihydro-2-thioxo-4,6(1H,5H)-pyrimidinedione), in dry DMSO. The preparation of DiSBAC6(3) is analogous to that of DiSBAC4(3) as described in Voltage Sensing by Fluorescence Resonance Energy Transfer in Single Cells, Gonzalez, J. E. and Tsien, R. Y. (1995) Biophys. J. 69, 1272-1280.
5 mM CC2-DMPE, a commercially available membrane-bound coumarin phospholipid FRET donor (ThermoFisher Scientific catalog number K1017, CAS number 393782-57-5; tetradecanoic acid, 1,1′-[(1R)-1-[8-(6-chloro-7-hydroxy-2-oxo-2H-1-benzopyran-3-yl)-3-hydroxy-3-oxido-8-oxo-2,4-dioxa-7-aza-3-phosphaoct-1-yl]-1,2-ethanediyl]ester) was prepared in dry DMSO. See also, Improved indicators of cell membrane potential that use fluorescence resonance energy transfer, Gonzalez, J. E. and Tsien, R. Y. (1997) Chem. Biol. 4, 269-277.
Voltage Assay Background Suppression Compound (VABSC-1) is prepared in H2O (89-363 mM, range used to maintain solubility)
Human Serum (HS, Millipore #S1P1-01KL, or Sigma SLBR5469V and SLBR5470V as a 50%/50% mixture, for 25% assay final concentration)
Sodium Chloride 160 mM (9.35 g/L), Potassium Chloride, 4.5 mM (0.335 g/L), Glucose 10 mM (1.8 g/L), Magnesium Chloride (Anhydrous) 1 mM (0.095 g/L), Calcium Chloride 2 mM (0.222 g/L), HEPES 10 mM (2.38 g/L) in water. […]
Usually IC50 stands for the concentration that gives 50% inhibition. Take `Cc1cc(=O)cc(-c2cc(C(F)(F)F)cnc2N2CCC(F)(F)CC2)[nH]1` [Compound 157, 2-[2-(4,4-difluoro-1-piperidyl)-5-(trifluoromethyl)-3-pyridyl]-6-methyl-1H-pyridin-4-one]: the IC50 was at least 5 µM.
With `CCOC(=O)c1c(-c2cc3ccccc3nc2N2CCCCC2)[nH]c(C)c(OC)c1=O` [Compound 250, ethyl 5-methoxy-6-methyl-4-oxo-2-[2-(1-piperidyl)-3-quinolyl]-1H-pyridine-3-carboxylate], the IC50 was 0.5 to 2 µM.
In the case of `Cc1cc(=O)cc(-c2cc3ccccc3nc2OCc2ccccc2)[nH]1` [Compound 105, 2-(2-benzyloxy-3-quinolyl)-6-methyl-1H-pyridin-4-one] it was at least 5 µM; in that of `CCOC(=O)c1c(-c2cc3ccccc3nc2N2CCOCC2)[nH]c(C)c(OC)c1=O` [Compound 249, ethyl 5-methoxy-6-methyl-2-(2-morpholino-3-quinolyl)-4-oxo-1H-pyridine-3-carboxylate], at least 5 µM; in that of `CCOC(=O)c1c(-c2cc3ccccc3nc2N2CCC(C)(C)C2)[nH]c(C)c(OC)c1=O` [Compound 238, ethyl 2-[2-(3,3-dimethylpyrrolidin-1-yl)-3-quinolyl]-5-methoxy-6-methyl-4-oxo-1H-pyridine-3-carboxylate], 0.5 to 2 µM.
In the case of `CCOC(=O)c1c(-c2cc3ccccc3nc2N2CCC[C@H](OC)C2)[nH]c(C)c(OC)c1=O` [Compound 231, ethyl 5-methoxy-2-[2-[(3S)-3-methoxy-1-piperidyl]-3-quinolyl]-6-methyl-4-oxo-1H-pyridine-3-carboxylate] it was 2 to 5 µM; in that of `Cc1c(Oc2ncc(C(F)(F)F)c(C)c2-c2cc(=O)c(C(N)=O)c[nH]2)ccc(F)c1F` [Compound 310, 6-[2-(3,4-difluoro-2-methyl-phenoxy)-4-methyl-5-(trifluoromethyl)-3-pyridyl]-4-oxo-1H-pyridine-3-carboxamide], 0.5 to 2 µM; in that of `COc1cc(F)ccc1Oc1cc(C(C)(C)C)cc(C)c1-c1cc(=O)c(C(=O)N(C)C)c(C)[nH]1` [Compound 289, 6-[4-tert-butyl-2-(4-fluoro-2-methoxy-phenoxy)-6-methyl-phenyl]-N,N,2-trimethyl-4-oxo-1H-pyridine-3-carboxamide], 0.5 to 2 µM.
In the case of `Cc1[nH]c(-c2cc(C(F)(F)F)ncc2C2CCC(C(F)(F)F)CC2)cc(=O)c1C` (stereo not shown) [Compound 142, 2,3-dimethyl-6-[2-(trifluoromethyl)-5-[4-(trifluoromethyl)cyclohexyl]-4-pyridyl]-1H-pyridin-4-one] it was 0.5 to 2 µM; in that of `CCOC(=O)c1c(-c2cc3ccccc3nc2N2CCC(F)(F)C2)[nH]c(C)c(OC)c1=O` [Compound 242, ethyl 2-[2-(3,3-difluoropyrrolidin-1-yl)-3-quinolyl]-5-methoxy-6-methyl-4-oxo-1H-pyridine-3-carboxylate], 2 to 5 µM; in that of `Cc1cc(-c2[nH]c(C)c(C)c(=O)c2C(=O)O)c(N2CCCC(F)(F)CC2)nc1C(F)(F)F` [Compound 284, 2-[2-(4,4-difluoroazepan-1-yl)-5-methyl-6-(trifluoromethyl)-3-pyridyl]-5,6-dimethyl-4-oxo-1H-pyridine-3-carboxylic acid], 0.5 to 2 µM.
Turning to `COc1c(Oc2cnc(C(F)(F)F)cc2-c2[nH]c(C)c(C)c(=O)c2C(=O)O)ccc(F)c1F` [Compound 280, 2-[5-(3,4-difluoro-2-methoxy-phenoxy)-2-(trifluoromethyl)-4-pyridyl]-5,6-dimethyl-4-oxo-1H-pyridine-3-carboxylic acid], the half-inhibitory concentration (IC50) lay in the range of 0.5 to 2 µM.
Under `Cc1cc(=O)cc(-c2cc(C(F)(F)F)cnc2N2CCCC(F)(F)CC2)[nH]1` [Compound 156, 2-[2-(4,4-difluoroazepan-1-yl)-5-(trifluoromethyl)-3-pyridyl]-6-methyl-1H-pyridin-4-one] stands 0.5 to 2 µM.
Under `Cc1cnc(N2CCCC(F)(F)CC2)c(-c2cc(=O)cc(C)[nH]2)c1` [Compound 320, 2-[2-(4,4-difluoroazepan-1-yl)-5-methyl-3-pyridyl]-6-methyl-1H-pyridin-4-one] stands 2 to 5 µM; under `Cc1cc(=O)cc(-c2cc(C(F)(F)F)ncc2C2CCC(C(F)(F)F)CC2)[nH]1` (stereo not shown) [Compound 322, 2-methyl-6-[2-(trifluoromethyl)-5-[4-(trifluoromethyl)cyclohexyl]-4-pyridyl]-1H-pyridin-4-one], 2 to 5 µM.
In the case of `Cc1cc(=O)cc(-c2ccccc2OCC2CC2)[nH]1` [Compound 146, 2-[2-(cyclopropylmethoxy)phenyl]-6-methyl-1H-pyridin-4-one] it was at least 5 µM; in that of `CO[C@@H]1CN(c2nc3ccccc3cc2-c2cc(=O)cc(C)[nH]2)C[C@@H]1C` [Compound 253, 2-[2-[(3S,4S)-3-methoxy-4-methyl-pyrrolidin-1-yl]-3-quinolyl]-6-methyl-1H-pyridin-4-one], 0.5 to 2 µM; in that of `COc1c(Oc2cc(C(F)(F)F)c(F)cc2-c2cc(=O)nc(C)[nH]2)ccc(F)c1F` [Compound 55, 6-[2-(3,4-difluoro-2-methoxy-phenoxy)-5-fluoro-4-(trifluoromethyl)phenyl]-2-methyl-1H-pyrimidin-4-one], at least 5 µM.
For the molecule `CCOC(=O)c1c(C)[nH]c(-c2c(Oc3ccc(F)c(F)c3C)ncc(C(F)(F)F)c2C)c(C)c1=O` [Compound 43, ethyl 6-[2-(3,4-difluoro-2-methyl-phenoxy)-4-methyl-5-(trifluoromethyl)-3-pyridyl]-2,5-dimethyl-4-oxo-1H-pyridine-3-carboxylate], the half-maximal inhibitory concentration (IC50) was 0.5 to 2 µM.
With `CCOC(=O)c1c(-c2cc3ccccc3nc2N2CC[C@H](OC)C2)[nH]c(C)c(OC)c1=O` [Compound 244, ethyl 5-methoxy-2-[2-[(3S)-3-methoxypyrrolidin-1-yl]-3-quinolyl]-6-methyl-4-oxo-1H-pyridine-3-carboxylate], the 50% inhibitory concentration (IC50) fell in the range of 2 to 5 µM.
Under `COC(=O)c1c(-c2cc(C(F)(F)F)ncc2N2CCCC(F)(F)CC2)[nH]c(C)c(C)c1=O` [Compound 297, methyl 2-[5-(4,4-difluoroazepan-1-yl)-2-(trifluoromethyl)-4-pyridyl]-5,6-dimethyl-4-oxo-1H-pyridine-3-carboxylate] stands 2 to 5 µM; under `Cc1cc(=O)cc(-c2c(C(F)(F)F)ccnc2N2CCC(F)(F)CC2)[nH]1` [Compound 319, 2-[2-(4,4-difluoro-1-piperidyl)-4-(trifluoromethyl)-3-pyridyl]-6-methyl-1H-pyridin-4-one], at least 5 µM.
In the case of `COc1cc(F)ccc1Oc1cc(C(C)(C)C)cc(C)c1-c1cc(=O)cc(C(O)CO)[nH]1` (stereo not shown) [Compound 274, 2-[4-tert-butyl-2-(4-fluoro-2-methoxy-phenoxy)-6-methyl-phenyl]-6-(1,2-dihydroxyethyl)-1H-pyridin-4-one] it was at least 5 µM; in that of `Cc1cc(=O)[nH]c(-c2nc(C(F)(F)F)ccc2N2CCCC(F)(F)CC2)n1` [Compound 252, 2-[3-(4,4-difluoroazepan-1-yl)-6-(trifluoromethyl)-2-pyridyl]-4-methyl-1H-pyrimidin-6-one], at least 5 µM.
In the case of `CCOC(=O)c1c(-c2cc3ccccc3nc2N2CCC(OC)CC2)[nH]c(C)c(OC)c1=O` [Compound 229, ethyl 5-methoxy-2-[2-(4-methoxy-1-piperidyl)-3-quinolyl]-6-methyl-4-oxo-1H-pyridine-3-carboxylate] it was 2 to 5 µM.
